{
  "source": "patent US20100120700A1",
  "about": "“METHODS AND COMPOSITIONS FOR TREATING CERVICAL CANCER” (priority 2000, published 2010)",
  "experiment_in_all_cases": "G assay PDZ-PL binding",
  "key": {"KIAA0147 domain 2": {"target": "T1, KIAA0147 domain 2 (Homo sapiens, UniProt Q14160)", "T1 construct": "made in house; host or cells: E. coli (DH5alpha or BL-21)", "T1 sequence (Q14160 856-952)": "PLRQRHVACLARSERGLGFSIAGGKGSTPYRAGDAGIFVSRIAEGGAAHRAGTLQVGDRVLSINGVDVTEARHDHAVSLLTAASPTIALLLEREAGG", "details": "peptide 10 uM, protein 5", "method_in_brief": "(§1)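 Plate ELISA: anti-GST antibody coat, BSA block, then GST/PDZ fusion (GST alone as negative control). Biotinylated PL peptide 20 uM (10 uM in G′ variant) added, 10 min 4 °C plus 20 min 25 °C; streptavidin-HRP, TMB, absorbance 450 nm.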"}, "Numb BP domain 1": {"target": "T2, Numb BP domain 1 (Homo sapiens, UniProt Q8TBB1)", "T2 construct": "made in house; host or cells: E. coli (DH5alpha, BL21 or JM109)", "T2 sequence (Q8TBB1 with tags, fused parts or gaps)": "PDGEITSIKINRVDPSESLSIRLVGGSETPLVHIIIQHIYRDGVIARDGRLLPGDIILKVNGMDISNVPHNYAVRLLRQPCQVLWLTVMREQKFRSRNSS", "details": "peptide 10 uM, protein 5", "method_in_brief": "as §1"}, "MAGI 1 domain 6": {"target": "T3, MAGI 1 domain 6 (Homo sapiens, UniProt Q96QZ7)", "T3 construct": "made in house; host or cells: E. coli (DH5alpha, BL21 or JM109), vector pGEX-3X", "T3 sequence (Q96QZ7 1143-1233)": "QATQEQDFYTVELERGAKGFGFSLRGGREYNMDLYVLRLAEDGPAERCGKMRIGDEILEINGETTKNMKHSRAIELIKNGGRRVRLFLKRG", "details": "peptide 10 uM, protein 5", "method_in_brief": "as §1"}, "GTPase domain 1": {"target": "T4, GTPase domain 1 (Homo sapiens, UniProt Q96FS4)", "T4 construct": "made in house; host or cells: E. coli (DH5alpha, BL21 or JM109)", "T4 sequence (Q96FS4 680-767)": "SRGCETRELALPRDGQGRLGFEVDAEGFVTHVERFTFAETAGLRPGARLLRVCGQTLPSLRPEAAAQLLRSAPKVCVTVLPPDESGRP", "details": "peptide 10 uM, protein 5", "method_in_brief": "as §1"}, "TAX IP 2 domain 1": {"target": "T5, TAX IP 2 domain 1 (Homo sapiens, UniProt O14908)", "T5 construct": "made in house; host or cells: E. coli (DH5alpha, BL21 or JM109)", "T5 sequence (O14908 131-216)": "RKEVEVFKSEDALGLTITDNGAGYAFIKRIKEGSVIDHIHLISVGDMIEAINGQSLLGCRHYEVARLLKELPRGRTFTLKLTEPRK", "details": "peptide 10 uM, protein 5", "method_in_brief": "as §1"}, "MUPP1 domain 10": {"target": "T6, MUPP1 domain 10 (Homo sapiens, UniProt O75970)", "T6 construct": "made in house; host or cells: E. coli (DH5alpha or BL-21)", "T6 sequence (O75970 with tags, fused parts or gaps)": "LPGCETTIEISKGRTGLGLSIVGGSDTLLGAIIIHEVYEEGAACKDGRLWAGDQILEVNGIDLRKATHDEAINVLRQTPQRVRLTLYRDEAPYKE", "details": "peptide 10 uM, protein 5", "method_in_brief": "as §1"}, "KIAA0973 #148.5 domain 1": {"target": "T7, KIAA0973 #148.5 domain 1 (Homo sapiens, UniProt Q9Y2H9)", "T7 construct": "made in house; host or cells: E. coli (DH5alpha, BL21 or JM109)", "T7 sequence (Q9Y2H9 963-1055)": "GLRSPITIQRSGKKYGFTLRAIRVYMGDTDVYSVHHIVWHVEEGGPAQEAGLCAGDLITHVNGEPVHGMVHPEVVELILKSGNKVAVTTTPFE", "details": "peptide 10 uM, protein 5", "method_in_brief": "as §1"}, "SSTRIP domain 1": {"target": "T8, SSTRIP domain 1 (Homo sapiens, UniProt Q9Y566)", "T8 construct": "made in house; host or cells: E. coli (DH5alpha, BL21 or JM109)", "T8 sequence (Q9Y566 with tags, fused parts or gaps)": "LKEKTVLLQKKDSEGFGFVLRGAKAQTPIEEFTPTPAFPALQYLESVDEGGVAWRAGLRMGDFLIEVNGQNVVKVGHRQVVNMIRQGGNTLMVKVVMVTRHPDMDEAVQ", "details": "peptide 10 uM, protein 5", "method_in_brief": "as §1"}, "PAR3 #182.1 domain 3": {"target": "T9, PAR3 #182.1 domain 3 (Homo sapiens, UniProt Q8TEW0)", "T9 construct": "made in house; host or cells: E. coli (DH5alpha or BL-21)", "T9 sequence (Q8TEW0 579-681)": "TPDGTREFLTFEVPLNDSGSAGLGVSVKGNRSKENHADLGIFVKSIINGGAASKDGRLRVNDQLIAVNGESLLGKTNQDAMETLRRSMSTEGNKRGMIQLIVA", "details": "peptide 10 uM, protein 5", "method_in_brief": "as §1"}, "Magi2 domain 1": {"target": "T10, Magi2 domain 1 (Homo sapiens, UniProt Q86UL8)", "T10 construct": "made in house; host or cells: E. coli (DH5alpha, BL21 or JM109)", "T10 sequence (Q86UL8 408-511)": "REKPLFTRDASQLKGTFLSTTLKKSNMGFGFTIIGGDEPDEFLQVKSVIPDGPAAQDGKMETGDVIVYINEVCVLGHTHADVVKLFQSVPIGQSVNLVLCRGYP", "details": "vs GST only well, peptide 10 uM, protein 5", "method_in_brief": "as §1"}, "KIAA1095 domain 1": {"target": "T11, KIAA1095 domain 1 (Homo sapiens, UniProt Q9UPQ7)", "T11 construct": "made in house; host or cells: E. coli (DH5alpha, BL21 or JM109)", "T11 sequence (Q9UPQ7 with tags, fused parts or gaps)": "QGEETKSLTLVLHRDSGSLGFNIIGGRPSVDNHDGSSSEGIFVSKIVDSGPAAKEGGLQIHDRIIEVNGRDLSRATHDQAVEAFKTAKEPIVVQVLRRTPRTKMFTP", "details": "peptide 10 uM, protein 5", "method_in_brief": "as §1"}, "FLJ11215 domain 1": {"target": "T12, FLJ11215 domain 1 (Homo sapiens, UniProt Q9NUP9)", "T12 construct": "made in house; host or cells: E. coli (DH5alpha, BL21 or JM109), vector pGEX-3X", "T12 sequence (Q9NUP9 86-182)": "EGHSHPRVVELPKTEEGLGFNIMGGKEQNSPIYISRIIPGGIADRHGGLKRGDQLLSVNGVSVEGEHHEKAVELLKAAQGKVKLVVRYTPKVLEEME", "details": "peptide 10 uM, protein 5", "method_in_brief": "as §1"}, "KIAA0147 domain 3": {"target": "T13, KIAA0147 domain 3 (Homo sapiens, UniProt Q14160)", "T13 construct": "made in house; host or cells: E. coli (DH5alpha, BL21 or JM109)", "T13 sequence (Q14160 with tags, fused parts or gaps)": "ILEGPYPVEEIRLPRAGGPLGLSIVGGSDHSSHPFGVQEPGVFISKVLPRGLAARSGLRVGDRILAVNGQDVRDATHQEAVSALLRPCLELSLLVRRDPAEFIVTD", "details": "A450 nm, peptide 10 uM, protein 5", "method_in_brief": "as §1"}, "KIAA0973 #148.4 domain 1": {"target": "T14, KIAA0973 #148.4 domain 1 (Homo sapiens, UniProt Q9Y2H9)", "T14 construct": "made in house; host or cells: E. coli (DH5alpha, BL21 or JM109)", "T14 sequence (Q9Y2H9 963-1055)": "as the sequence (Q9Y2H9 963-1055) above", "details": "peptide 10 uM, protein 5", "method_in_brief": "as §1"}},
  "note": "“And” between values parts separate entries of the source, which are not always exact repeats. Equal entries are not always repeated.",
  "data": [
    {"substance": "20 mer peptide corresponding to the C-terminus of HPV16 E6 (PDZ ligand), biotinylated in binding assays; ends SSRTRRETQL (SEQ ID NO: 13) [HPV E6 #16]", "values": [
      {"measurement": "Ave OD", "setting": "KIAA0147 domain 2; A450 nm", "value": 0.3745},
      {"measurement": "OD S/N", "setting": "KIAA0147 domain 2; vs GST only well", "value": 2.46},
      {"measurement": "Ave OD", "setting": "Numb BP domain 1; A450 nm", "value": 0.352},
      {"measurement": "OD S/N", "setting": "Numb BP domain 1; vs GST only well", "value": 3.17},
      {"measurement": "Ave OD", "setting": "MAGI 1 domain 6; A450 nm", "value": 0.71},
      {"measurement": "OD S/N", "setting": "MAGI 1 domain 6; vs GST only well", "value": 2.47},
      {"measurement": "Ave OD", "setting": "GTPase domain 1; A450 nm", "value": 0.3505},
      {"measurement": "OD S/N", "setting": "GTPase domain 1; vs GST only well", "value": 1.12},
      {"measurement": "Ave OD", "setting": "TAX IP 2 domain 1; A450 nm", "value": "0.5085 and 0.478"},
      {"measurement": "OD S/N", "setting": "TAX IP 2 domain 1; vs GST only well", "value": "2.37 and 2.48"},
      {"measurement": "Ave OD", "setting": "MUPP1 domain 10; A450 nm", "value": "0.3925 and 0.3915"},
      {"measurement": "OD S/N", "setting": "MUPP1 domain 10; vs GST only well", "value": "2.03 and 1.96"},
      {"measurement": "Ave OD", "setting": "KIAA0973 #148.5 domain 1; A450 nm", "value": "0.378 and 0.4985"},
      {"measurement": "OD S/N", "setting": "KIAA0973 #148.5 domain 1; vs GST only well", "value": "1.68 and 2.71"},
      {"measurement": "Ave OD", "setting": "SSTRIP domain 1; A450 nm", "value": 0.467},
      {"measurement": "OD S/N", "setting": "SSTRIP domain 1; vs GST only well", "value": 3.28},
      {"measurement": "Ave OD", "setting": "PAR3 #182.1 domain 3; A450 nm", "value": 0.445},
      {"measurement": "OD S/N", "setting": "PAR3 #182.1 domain 3; vs GST only well", "value": 2.07},
      {"measurement": "OD S/N", "setting": "Magi2 domain 1", "value": "11.59 and 7.23"},
      {"measurement": "Ave OD", "setting": "KIAA1095 domain 1; A450 nm", "value": "2.7045 and 1.711"},
      {"measurement": "OD S/N", "setting": "KIAA1095 domain 1; vs GST only well", "value": "13.13 and 7.96"},
      {"measurement": "Ave OD", "setting": "FLJ11215 domain 1; A450 nm", "value": "0.449 and 0.666"},
      {"measurement": "OD S/N", "setting": "FLJ11215 domain 1; vs GST only well", "value": "2.77 and 2.74"},
      {"measurement": "Ave OD", "setting": "KIAA0147 domain 3", "value": "2.0785 and 1.072"},
      {"measurement": "Ave OD", "setting": "KIAA0973 #148.4 domain 1; A450 nm", "value": "1.0105 and 0.6885"},
      {"measurement": "OD S/N", "setting": "KIAA0973 #148.4 domain 1; vs GST only well", "value": "6.22 and 5.12"}
    ]}
  ]
}
